pIC50: −log10 of the molar value.
Tests used:
Experiment in all cases: biochemical
WT HIV-1 PR (NL4-3) = WT HIV-1 PR (NL4-3) (Human immunodeficiency virus type 1 group M subtype B, UniProt P12497)
Protocol: (§1) In vitro transcription and cell-free protein synthesis were performed using WEPRO7240 wheat germ extract (CellFree Sciences, Yokohama, Japan). Transcription was performed using SP6 RNA polymerase, as described previously ([Matsunaga et al., 2014]). The translation reaction was performed in bilayer mode with slight modifications. Briefly, translation mixture (forming the bottom layer) consisted of 10 μl of each mRNA (usually 30–35 μg), 10 μl of WEPRO7240 (CellFree Sciences, Yokohama, Japan), and 0.8 μl of 1 μg/μl creatine kinase (Roche Diagnostics K. K., Tokyo, Japan) in 20.8 μl of SUB-AMIX® (CellFree Sciences, Yokohama, Japan). SUB-AMIX (206 μl) was placed on top of the translation mixture, thus forming the top layer. After incubation at 16°C for 16 h, synthesized proteins were confirmed by immunoblotting. For biotinylation of the substrate, 1 μl (50 ng) of crude biotin ligase (BirA) expressed in a wheat germ cell-free system was added to the bottom layer, and 0.5 μM (final concentration) of D-biotin (Nacalai Tesque, Inc., Kyoto, Japan) was added to both the top and bottom layers, as described previously ([Matsuoka et al., 2010]). As an initial experimental test, radiolabeled protein was produced by cell-free synthesis to confirm the yield and solubility of generated proteins as described previously ([Kamura et al., 2005]). In actual drug susceptibility testing, quantitations of synthesized HIV-1 PR proteins were performed by densitometric scanning of Coomassie Brilliant Blue (CBB)-stained bands as compared with purified HIV-1 PR or bovine serum albumin (BSA) ([Madin et al., 2000]).
(§2) CFDSA was performed using cell-free–synthesized PR, substrate peptide, and the AlphaScreen® system (PerkinElmer, Boston, MA, USA). […] The mixture was incubated at 37°C for 30 min in a 384-well Alphaplate (PerkinElmer). The enzymatic reaction was initiated by the addition of 5 μl of 0.25 μM cell-free–synthesized GST-p2/p7-bls substrate to each well, followed by incubation at 37°C for 2 h. Detection of PR activity was performed essentially as described in the AlphaScreen IgG detection kit instruction manual (PerkinElmer). Briefly, 10 μl of detection mixture containing 20 mM Tris-HCl (pH 7.5), 0.2 mM DTT, 5 mM MgCl2, 5 μg/ml anti-GST antibody, 1 mg/ml BSA, 0.1 μl streptavidin-coated donor beads, and 0.1 μl anti-IgG acceptor beads were added to each well of the 384-well plate, followed by incubation at 23°C for 1 h in the dark. Luminescence signals were analyzed with the AlphaScreen detection program using the EnSpire software (PerkinElmer), and light intensities in the presence of the serially diluted inhibitors were used to calculate their IC50 values. PI-resistance levels were determined by comparing the IC50 values of drug-resistant PR with those of NL4-3 PR. The results for each PR were normalized based on protein productivity, as determined by liquid scintillation counting. IC50 values were calculated using XLfit (ID BUSINESS SOLUTIONS, Guildford, UK). The criteria for CFDSA measurement of resistance were as follows: fold resistance value (FRV) = IC50 ratio of test PR/IC50 ratio of WT PR.
(§3) For the quantitative and high-throughput measurement of HIV-1 PR activity using AlphaScreen technology, we designed a reporter substrate comprising a partial Gag p2-p7 junction peptide flanked by N-terminal GST and C-terminal biotin binding sequence (GST-p2/p7-biotin) as described in Figure 2A.

[1] = tested on: drug-resistant HIV-1 PR (PR02-A) harboring L10I/G48S/I54V/V82F/L90M mutations; details: IC50 of drug-resistant PR divided by IC50 of WT PR
Protocol: as §1, §2, §3

[2] = molecular target: drug-resistant HIV-1 PR (PR02-A) harboring L10I/G48S/I54V/V82F/L90M mutations (Human immunodeficiency virus type 1 group M subtype B, UniProt P12497, G536S/I542V/L498I/L578M/V570F)
Protocol: as §1, §2, §3

SMILES | pIC50 (WT HIV-1 PR (NL4-3)) | fold-resistance to WT PR (FRV, DR/WT) [1] [fold] | pIC50 [2]
CC(C)CN(C[C@@H](O)[C@H](Cc1ccccc1)NC(=O)O[C@H]1CCOC1)S(=O)(=O)c1ccc(N)cc1 [APV, amprenavir] | 7.63 | 4.0 | 7.03
COC(=O)N[C@H](C(=O)N[C@@H](Cc1ccccc1)[C@@H](O)CN(Cc1ccc(-c2ccccn2)cc1)NC(=O)[C@@H](NC(=O)OC)C(C)(C)C)C(C)(C)C [ATV, atazanavir] | 7.75 | 7.7 | 6.86
